Laboratory results from the CheMixHub ionic liquid set.
± gives the uncertainty stated by the source.

Test: xn = mol fraction of the nth substance listed
Conditions: for electrical conductivity: 100 kPa; for viscosity: 101 kPa

CCCCCCCCCCCCCCCC[n+]1ccccc1.[Cl-] + OCC(O)CO + O
electrical conductivity [S/m]
Conditions | 293.15 K | 298.15 K | 303.15 K | 308.15 K
x1 = 3.75e-06, x2 = 0.01019 | 0.0022 ± 0.0011 | 0.0024 ± 0.0011 | 0.0025 ± 0.0012 | 0.0029 ± 0.0012
x1 = 3.92e-06, x2 = 0.02128 | 0.0022 ± 0.0011 | 0.0023 ± 0.0011 | 0.0024 ± 0.0011 | 0.0032 ± 0.0013
x1 = 4.1e-06, x2 = 0.03338 | 0.0019 ± 0.0011 | 0.0022 ± 0.0011 | 0.0026 ± 0.0011 | 0.0032 ± 0.0012
x1 = 4.29e-06, x2 = 0.04664 | 0.0019 ± 0.001 | 0.0022 ± 0.0011 | – | 0.0032 ± 0.0012
x1 = 7.51e-06, x2 = 0.01019 | 0.004 ± 0.0012 | 0.0042 ± 0.0011 | 0.0046 ± 0.0012 | 0.0052 ± 0.0013
x1 = 7.84e-06, x2 = 0.02128 | 0.0035 ± 0.0011 | 0.0039 ± 0.0011 | 0.0043 ± 0.0012 | 0.0054 ± 0.0012
x1 = 8.2e-06, x2 = 0.03338 | 0.0031 ± 0.0011 | 0.0037 ± 0.0011 | 0.0043 ± 0.0011 | 0.0049 ± 0.0012
x1 = 8.59e-06, x2 = 0.04664 | 0.003 ± 0.001 | 0.0036 ± 0.0011 | 0.0044 ± 0.0011 | 0.0048 ± 0.0011
x1 = 1.126e-05, x2 = 0.01019 | 0.0058 ± 0.0012 | – | 0.0065 ± 0.0012 | 0.0076 ± 0.0013
x1 = 1.176e-05, x2 = 0.02128 | – | 0.0054 ± 0.0011 | 0.0064 ± 0.0012 | 0.0077 ± 0.0012
x1 = 1.23e-05, x2 = 0.03338 | 0.0043 ± 0.0011 | 0.0052 ± 0.0011 | 0.0059 ± 0.0011 | 0.0068 ± 0.0012
x1 = 1.288e-05, x2 = 0.04664 | 0.004 ± 0.001 | 0.005 ± 0.0011 | 0.0058 ± 0.0011 | 0.0065 ± 0.0011
x1 = 1.502e-05, x2 = 0.01019 | 0.0076 ± 0.0011 | 0.0076 ± 0.0011 | 0.0085 ± 0.0012 | –
x1 = 1.568e-05, x2 = 0.02128 | 0.0063 ± 0.0011 | – | 0.0084 ± 0.0012 | –
x1 = 1.639e-05, x2 = 0.03338 | 0.0056 ± 0.0011 | 0.0066 ± 0.0011 | 0.0077 ± 0.0011 | 0.0088 ± 0.0012
x1 = 1.718e-05, x2 = 0.04664 | 0.0052 ± 0.0011 | 0.0063 ± 0.0011 | 0.0072 ± 0.0011 | 0.0083 ± 0.0011
x1 = 1.877e-05, x2 = 0.01019 | 0.0087 ± 0.001 | 0.0092 ± 0.0011 | – | –
x1 = 1.96e-05, x2 = 0.02128 | 0.0076 ± 0.001 | 0.0087 ± 0.0011 | – | –
x1 = 2.049e-05, x2 = 0.03338 | 0.0069 ± 0.0011 | 0.0081 ± 0.0011 | 0.0093 ± 0.0011 | –
x1 = 2.147e-05, x2 = 0.04664 | 0.0063 ± 0.001 | 0.0078 ± 0.0011 | 0.0086 ± 0.0011 | –
x1 = 2.253e-05, x2 = 0.01019 | 0.0094 ± 0.001 | – | – | –
x1 = 2.351e-05, x2 = 0.02128 | 0.0083 ± 0.001 | 0.0096 ± 0.001 | – | –
x1 = 2.459e-05, x2 = 0.03338 | 0.0079 ± 0.001 | 0.0089 ± 0.001 | – | –
x1 = 2.577e-05, x2 = 0.04664 | 0.0073 ± 0.001 | 0.0089 ± 0.001 | 0.0097 ± 0.001 | –
x1 = 2.743e-05, x2 = 0.02128 | 0.0089 ± 0.001 | – | – | –
x1 = 2.869e-05, x2 = 0.03338 | 0.0086 ± 0.001 | 0.0095 ± 0.001 | – | –
x1 = 3.006e-05, x2 = 0.04664 | 0.0079 ± 0.001 | 0.0095 ± 0.001 | – | –
x1 = 3.135e-05, x2 = 0.02128 | 0.0095 ± 0.001 | – | – | –
x1 = 3.279e-05, x2 = 0.03338 | 0.0092 ± 0.001 | – | – | –
x1 = 3.436e-05, x2 = 0.04664 | 0.0084 ± 0.001 | – | – | –
x1 = 3.688e-05, x2 = 0.03338 | 0.0098 ± 0.001 | – | – | –
x1 = 3.865e-05, x2 = 0.04664 | 0.0089 ± 0.001 | – | – | –
x1 = 4.295e-05, x2 = 0.04664 | 0.0094 ± 0.001 | – | – | –

CCCC(=O)[O-].CC[NH+](CC)CCO + CCCC[n+]1ccn(C)c1.COP(=O)([O-])OC
Conditions | viscosity [mPa·s]
278.15 K, x1 = 0.8006 | 196.8 ± 5.1
278.15 K, x1 = 1 | 189 ± 5.1
283.15 K, x1 = 0.6001 | 182.3 ± 4.4
283.15 K, x1 = 1 | 133.9 ± 3.3
288.15 K, x1 = 0.1023 | 864 ± 35
288.15 K, x1 = 0.6613 | 121.1 ± 2.6
293.15 K, x1 = 0.3985 | 163.9 ± 3.7
293.15 K, x1 = 0.498 | 123.1 ± 2.6
293.15 K, x1 = 0.6001 | 99.4 ± 2
293.15 K, x1 = 0.8788 | 74.2 ± 1.5
298.15 K, x1 = 0.1989 | 264.3 ± 6.8
303.15 K, x1 = 0.1989 | 194.8 ± 4.4
303.15 K, x1 = 0.6001 | 58.8 ± 1.1
308.15 K, x1 = 0.3985 | 73.2 ± 1.3
313.15 K, x1 = 0.3026 | 78 ± 1.3
313.15 K, x1 = 0.498 | 45.11 ± 0.79
313.15 K, x1 = 0.6613 | 33.88 ± 0.62
318.15 K, x1 = 0.1023 | 124.4 ± 2.2
318.15 K, x1 = 0.6001 | 30.12 ± 0.54
318.15 K, x1 = 0.8006 | 23.35 ± 0.46
323.15 K, x1 = 0.1989 | 69.7 ± 1
323.15 K, x1 = 0.6613 | 22.66 ± 0.42
328.15 K, x1 = 0.6001 | 20.62 ± 0.37
338.15 K, x1 = 0.6613 | 13.49 ± 0.25
338.15 K, x1 = 0.8006 | 11.39 ± 0.22
338.15 K, x1 = 1 | 9.73 ± 0.21
343.15 K, x1 = 0.1989 | 31.59 ± 0.46
343.15 K, x1 = 0.3985 | 18.82 ± 0.31
343.15 K, x1 = 0.6001 | 12.63 ± 0.23
348.15 K, x1 = 0.498 | 13.05 ± 0.23
353.15 K, x1 = 0.3026 | 17.55 ± 0.27
353.15 K, x1 = 0.8006 | 7.3 ± 0.14
353.15 K, x1 = 0.8788 | 6.78 ± 0.14
353.15 K, x1 = 1 | 6.11 ± 0.13
358.15 K, x1 = 0.3985 | 12.24 ± 0.2
358.15 K, x1 = 0.6613 | 7.62 ± 0.14
358.15 K, x1 = 1 | 5.31 ± 0.11
368.15 K, x1 = 0.3026 | 11.71 ± 0.18
368.15 K, x1 = 1 | 4.09 ± 0.09
